Assay results as given in patent US20230346827A1 (priority 2020, published 2023).

System: rats subjected to sTBI
Test: sTBI rats, LMW-DS 1, 5, 15 mg/kg s.c. 30 min post-TBI: HPLC of brain energy metabolites, antioxidants, oxidative/nitrosative stress biomarkers (Example 4)
Assay type: in vivo, rat
Details: for ATP/ADP / NAD+/NADH: adimensional ratio
Protocol: Male Wistar rats (n=160) of 300-350 g body weight were used in this study. They were fed with standard laboratory diet and water ad libitum in a controlled environment.
As the accepted anesthetic mixture, animals received 35 mg/kg b.w. ketamine and 0.25 mg/kg body weight midazolam by intramuscular injection. Diffuse sTBI was induced according to the “weight drop” impact acceleration model set up by Marmarou et al. J. Neurosurg. 1994, 80: 291-300. This model causes diffuse axonal injury and it is able to reproduce the physical and mechanical characteristics of the diffuse TBI in humans.
Severe TBI was induced by dropping a 450 g weight from 2 meters height onto the rat head protected by a helmet (metal disk previously fixed on the skull using dental cement) in order to uniformly distribute the mechanical force to the brain. Rats were placed prone on a bed of specific polyurethane foam inserted in a special container; this foam dissipates the major part of the potential energy (deriving from the mechanical forces) and prevents any rebound of the animal after the impact that could produce spinal damages.
After 2 or 7 days from TBI induction, rats were anesthetized again and then immediately sacrificed. These time points are coincident with the worst biochemical derangement (2 days) or, in the case of a mildly injured brain, with a full metabolic recovery (7 days).
The drug treatment consisted in a subcutaneous injection of 0.5 ml of LMW-DS (ILB®, Tikomed, Viken, Sweden, WO 2016/076780) and administered at 3 different concentrations (1, 5 and 15 mg/kg body weight), according to the schematic protocol described below. Sham-operated animals underwent the same procedure of anesthesia but TBI and were used as the control group.
(§1) Rats subjected to sTBI and receiving a single administration of LMW-DS after 30 minutes post-TBI, with sacrifice at 2 days post-TBI. Animals were divided in the following subgroups: • 1. 12 animals subjected to sTBI and treated with 1 mg/kg b.w. LMW-DS • 2. 12 animals subjected to sTBI and treated with 5 mg/kg b.w. LMW-DS • 3. 12 animals subjected to sTBI and treated with 15 mg/kg b.w. LMW-DS
as §1, with “at 7” for “at 2”
Rats (n = 12) subjected to sTBI and receiving repeated administrations of the maximal dose of LMW-DS (15 mg/kg b.w.) after 30 minutes, 3 days and 5 days post-TBI, with sacrifice at 7 days post-TBI. Four additional rats were used for the histo-morphological studies. Total rats in this group: n=16
To minimize metabolite loss, an in vivo craniectomy was performed in all animals during anesthesia. The rat skull was carefully removed, the brain was exposed, sharply cut along the sagittal fissure and the two hemispheres were separated. The hemispheres dedicated to biochemical analyses were freeze-clamped by aluminum tongues pre-cooled in liquid nitrogen and then immersed in liquid nitrogen. The freeze-clamping procedure was introduced to accelerate freezing of the tissue, thus minimizing potential metabolite loss.
Tissue homogenization for metabolite analyses was effected as described below. After the wet weight (w.w.) determination, the frozen hemispheres were placed into 7 ml of ice-cold, nitrogen-saturated, precipitating solution (1:10 w/v) composed by CH3CN + 10 mM KH2PO4, pH 7.40, (3:1; v:v), and the homogenization was performed using an Ultra-Turrax homogenizer set at 24,000 rpm/min (Janke & Kunkel, Staufen, Germany). […]

[1] = 15 mg/kg repeated, 7 d post-sTBI

Q: Which results are given for sodium salt of dextran sulfate [LMW-DS]?
A: Malonyl-CoA (5 mg/kg, 7 d post-sTBI): 6.02 ± 1.09 nmol/g w.w.; NADH (5 mg/kg, 7 d post-sTBI): 8.83 ± 1.26 nmol/g w.w.; NADPH (5 mg/kg, 7 d post-sTBI): 12.30 ± 2.86 nmol/g w.w.; NADP^+ (5 mg/kg, 7 d post-sTBI): 24.45 ± 8.97 nmol/g w.w.; NAD^+ (5 mg/kg, 7 d post-sTBI): 293.36 ± 41.55 nmol/g w.w.; NO2 (5 mg/kg, 7 d post-sTBI): 59.61 ± 12.91 nmol/g w.w.; NO3 (5 mg/kg, 7 d post-sTBI): 234.45 ± 40.05 nmol/g w.w.; UDP (5 mg/kg, 7 d post-sTBI): 44.19 ± 6.22 nmol/g w.w.; UDP-Gal (5 mg/kg, 7 d post-sTBI): 132.66 ± 9.12 nmol/g w.w.; UDP-GalNac (5 mg/kg, 7 d post-sTBI): 17.37 ± 4.98 nmol/g w.w.; UDP-Glc (5 mg/kg, 7 d post-sTBI): 58.10 ± 11.81 nmol/g w.w.; UDP-GlcNac (5 mg/kg, 7 d post-sTBI): 85.14 ± 29.45 nmol/g w.w.; UMP (5 mg/kg, 7 d post-sTBI): 167.18 ± 32.39 nmol/g w.w.; URACIL (5 mg/kg, 7 d post-sTBI): 18.34 ± 3.77 nmol/g w.w.; URIC ACID (5 mg/kg, 7 d post-sTBI): 17.26 ± 4.11 nmol/g w.w.; URIDINE (5 mg/kg, 7 d post-sTBI): 134.60 ± 31.89 nmol/g w.w.; UTP (5 mg/kg, 7 d post-sTBI): 175.02 ± 30.65 nmol/g w.w.; XANTHINE (5 mg/kg, 7 d post-sTBI): 14.33 ± 4.05 nmol/g w.w.; β-PSEUDOURIDINE (5 mg/kg, 7 d post-sTBI): 17.51 ± 3.25 nmol/g w.w.; ATP/ADP (5 mg/kg, 7 d post-sTBI): 6.28 ± 0.80; NAD+/NADH (5 mg/kg, 7 d post-sTBI): 33.90 ± 7.19; ADENOSINE [1]: 40.84 ± 30.25 nmol/g w.w.; ADP [1]: 260.32 ± 34.67 nmol/g w.w.; ADP-Ribose [1]: 13.23 ± 3.32 nmol/g w.w.; AMP [1]: 43.12 ± 3.39 nmol/g w.w.; ASCORBIC ACID [1]: 2617.09 ± 315.18 nmol/g w.w.; ATP [1]: 1971.17 ± 158.57 nmol/g w.w.; Acetyl-CoA [1]: 37.91 ± 6.46 nmol/g w.w.; CDP choline [1]: 11.72 ± 3.76 nmol/g w.w.; CMP [1]: 31.21 ± 13.28 nmol/g w.w.; CREATININE [1]: 9.07 ± 1.60 nmol/g w.w.; CTP [1]: 92.67 ± 16.27 nmol/g w.w.; CYTIDINE [1]: 72.85 ± 25.63 nmol/g w.w.; CYTOSINE [1]: 8.76 ± 1.88 nmol/g w.w.; CoA-SH [1]: 45.76 ± 5.87 nmol/g w.w.; GDP [1]: 109.06 ± 12.46 nmol/g w.w.; GDP Glucose [1]: 106.42 ± 12.45 nmol/g w.w.; GMP [1]: 61.86 ± 29.28 nmol/g w.w.; GSH [1]: 2342.03 ± 308.72 nmol/g w.w.; GTP [1]: 466.06 ± 42.38 nmol/g w.w.; GUANINE [1]: 3.32 ± 1.41 nmol/g w.w.; GUANOSINE [1]: 19.66 ± 4.10 nmol/g w.w.; HYPOXANTHINE [1]: 4.10 ± 1.19 nmol/g w.w.; IMP [1]: 141.84 ± 36.32 nmol/g w.w.; INOSINE [1]: 139.26 ± 15.62 nmol/g w.w.; MDA [1]: 4.09 ± 0.67 nmol/g w.w.; Malonyl-CoA [1]: 12.56 ± 2.27 nmol/g w.w.; NADH [1]: 11.05 ± 1.52 nmol/g w.w.; NADPH [1]: 11.21 ± 2.60 nmol/g w.w.; NADP^+ [1]: 16.56 ± 6.08 nmol/g w.w.; NAD^+ [1]: 401.73 ± 56.89 nmol/g w.w.; NO2 [1]: 130.69 ± 28.31 nmol/g w.w.; NO3 [1]: 271.69 ± 46.41 nmol/g w.w.; UDP [1]: 37.12 ± 5.22 nmol/g w.w.; UDP-Gal [1]: 135.15 ± 9.29 nmol/g w.w.; UDP-GalNac [1]: 16.50 ± 4.73 nmol/g w.w.; UDP-Glc [1]: 61.37 ± 12.47 nmol/g w.w.; UDP-GlcNac [1]: 86.42 ± 29.89 nmol/g w.w.; UMP [1]: 107.66 ± 20.86 nmol/g w.w.; URACIL [1]: 24.13 ± 4.96 nmol/g w.w.; URIC ACID [1]: 7.80 ± 1.86 nmol/g w.w.; URIDINE [1]: 97.21 ± 23.03 nmol/g w.w.; UTP [1]: 133.72 ± 23.42 nmol/g w.w.; XANTHINE [1]: 11.24 ± 3.18 nmol/g w.w.; β-PSEUDOURIDINE [1]: 16.72 ± 3.10 nmol/g w.w.; ATP/ADP [1]: 7.67 ± 0.97; NAD+/NADH [1]: 37.47 ± 9.46; ADENOSINE (15 mg/kg, 2 d post-sTBI): 53.25 ± 12.75 nmol/g w.w.; ADP (15 mg/kg, 2 d post-sTBI): 346.37 ± 29.79 nmol/g w.w.; ADP-Ribose (15 mg/kg, 2 d post-sTBI): 23.06 ± 4.63 nmol/g w.w.; AMP (15 mg/kg, 2 d post-sTBI): 66.26 ± 10.74 nmol/g w.w.; ASCORBIC ACID (15 mg/kg, 2 d post-sTBI): 2783.04 ± 160.17 nmol/g w.w.; ATP (15 mg/kg, 2 d post-sTBI): 1556.54 ± 91.20 nmol/g w.w.; Acetyl-CoA (15 mg/kg, 2 d post-sTBI): 32.38 ± 3.77 nmol/g w.w.; CDP choline (15 mg/kg, 2 d post-sTBI): 7.07 ± 1.05 nmol/g w.w.; CMP (15 mg/kg, 2 d post-sTBI): 25.61 ± 5.23 nmol/g w.w.; CREATININE (15 mg/kg, 2 d post-sTBI): 11.77 ± 2.19 nmol/g w.w.; CTP (15 mg/kg, 2 d post-sTBI): 37.53 ± 7.59 nmol/g w.w.; CYTIDINE (15 mg/kg, 2 d post-sTBI): 11.46 ± 2.07 nmol/g w.w.; CYTOSINE (15 mg/kg, 2 d post-sTBI): 13.57 ± 1.66 nmol/g w.w.; CoA-SH (15 mg/kg, 2 d post-sTBI): 9.35 ± 1.03 nmol/g w.w.
